Patent US20140288117A1, “USE OF CYSTEAMINE IN TREATING PARKINSON'S DISEASE” (Omega Bio-Pharma (I.P. 2) Ltd, priority 2010, published 2014)

Columns and labels:
[1] = test system: superoxide dismutase (SOD); test: SOD activity in substantia nigra (xanthine/xanthine oxidase system); format: in vivo, mice; conditions: n = 8
Description: (§1) C57/BL mice weighted 20-22 g were used. […] The control group was injected with 0.9% saline.
(§2) The formation of thiobarbituric acid reactive species (TBARS) during an acid-heating reaction was determined by the absorbance at 532 nm. The rate of lipid peroxidation was expressed as nmol/mg protein. SOD activity was detected based on its ability to inhibit the superoxide anion free radical of O^2− generated by the xanthine/xanthine oxidase system. The absorbance at 550 nm was monitored and SOD levels were expressed as U/mg protein. The total glutathione (reduced and oxidized form of glutathione) was determined using glutathione reductase. Absorbance was measured at 412 nm using microplate reader. The standard curve was obtained from absorbance of the diluted commercial GSH that was incubated in the mixture as in samples. Results were reported as nmol TNB/mg protein.

[2] = test system: brain-derived neurotrophic factor (BDNF); test: BDNF concentration in substantia nigra by ABC-ELISA; conditions: for BDNF concentration in substantia nigra: mean±SD
Description: C57/BL mice weighted 20-22 g were used. Mice were treated with cysteamine and/or induced by MPTP fresh preparations according to the group assignments. Group assignments (n=8/group) were as follows: (1) saline (control) group, (2) MPTP alone (see below), (3) cysteamine (CS) 20 mg/kg/d alone for two weeks, (4) CS 75 mg/kg/d alone for two weeks, (5) CS 20 mg/kg/d for total 14 days and MPTP was given from day 5 to 9, (6) CS 75 mg/kg/d for total 14 days and MPTP was given from day 5 to 9, (7) simultaneous administration of MPTP and CS 20 mg/kg/d for 5 days followed by CS for additional 9 days, (8) simultaneous administration of MPTP and CS 75 mg/kg/d for 5 days followed by CS for additional 9 days. The control group was injected with 0.9% saline. MPTP (20 mg/kg) was intraperitoneally (i.p.) injected into the mice twice daily at an interval of 12 hrs for the initial 2 days and once per day on day 3-5 (Tremblay et al., “Neuroprotective effects of cystamine in aged parkinsonian mice,” Neurobiol Aging. 27:862-870 (2006)). CS (20 mg/kg/d and 75 mg/kg/day were injected alone for 14 days.
After treatment for 14 days, the animals were sacrificed by decapitation. Tissues were quickly removed from the brain on a Petri dish placed on ice using laboratory microscope (Chan et al., “Development of a high resolution three-dimensional surgical atlas of the murine head for strains 129S1/SvImJ and C57Bl/6J using magnetic resonance imaging and micro-computed tomography,” Neuroscience. 144:604-615 (2007)). Bilateral corpus striatum stored at −80° C. until used for HPLC analysis. Bilateral substantia nigra were immediately homogenized using an Ultrasonic Cell Disruptor (Biologics, Model 150 V/T), and which were centrifuged. The supernatant was used for the estimation of various enzyme activities.
The concentration of BDNF was measured by an ABC-ELISA method, according to the manufacturer's protocol (Beyotime Institute of Biotechnology). […] OD value and BDNF concentration are proportional to the standard curve obtained the standard BDNF concentrations. Data are represented as pg/mg protein.

[3] = test system: reactive oxygen species (ROS); test: ROS level in substantia nigra cells by DCDHF-DA fluorescence; format: in vivo, mice; conditions: n = 8
Description: as §1
The ROS level was measured using 2′,7′-dichlorodihydrofluorescein diacetate (DCDHF-DA). DCDHF-DA which is cell-permeable and non-fluorescent, and, in the presence of ROS it is oxidized inside cells and transformed into a fluorescent compound, 2′,7′-dichlorofluorescein (DCDF), which remains trapped within the cell. To measure the ROS level in substantia nigra, isolated cells (10^5/ml) were incubated with 50 μM DCDHF-DA for 40 min at 37° C. and washed twice in PBS. The fluorescence was monitored in microplate reader (Liu, et al., 2009). For each sample, 10,000 cells were acquired. Data were expressed as an average of fluorescence intensity of analyzed cell population (mean fluorescence intensity±SD).

[4] = test system: TH-immunoresponsive (TH-IR) neurons in the substantia nigra of MPTP-treated mice; test: Tyrosine hydroxylase immunohistochemistry: number of TH-IR neurons in substantia nigra; format: in vivo; conditions: mean±SD
Description: as §1
Twenty-four hours later the last injection, mice were anesthetized with chloral hydrate (100 mg/kg). The mice were subjected to thoracotomy and perfusion with ice-cold 0.9% sodium chloride 50 ml, then with 4% paraformaldehyde (PFA) 100 ml in 0.01 M PBS through the left ventricular. After fixation, the brain was post-fixed and then cryoprotected in 30% sucrose for 24 h. The brains were sectioned through the substantia nigra (SN) coronally at 30 um thickness on a cryostat (Leica CM1900, Nussloch, Germany). Sections were collected in 0.01 M PBS and processed free floating. The free floating sections were washed 3 times in Tris-buffered saline (TBS), incubated with H2O2 (3%) for 30 min and blocked with 5% normal goat serum (NGS), 0.2% Triton X-100 in TBS. Sections were incubated for 24 h with primary rabbit anti-TH monoclonal antibody (1:10000) (Watanabe et al., “Protective effects of M, Matsubara, Imai Y, Araki T. neuronal nitric oxide synthase inhibitor in mouse brain against MPTP neurotoxicity: an immunohistological study,” Eur Neuropsychopharmacol. 14:93-104 (2004)). Sections were washed in PBS and incubated for 2 hr at room temperature in secondary antibodies: biotinylated goat anti-rabbit (1:500) diluted in blocking buffer. The sections were incubated for 2 hr at room temperature in horseradish peroxidase labeled avidin work […] solution (1:500). TH immunoreactivity was visualized in SN after incubation in DAB and Nickel sulfate salt for 5-10 min. Sections were mounted on slides, dried, dehydrated in graded ethanol, cleared in xylene, and mounted with DPX mounting medium and coverslip. To test the specificity of the immunostaining, control sections were processed in an identical manner but with the primary antibody omitted. After TH-staining, the image of the sections from the substantia nigra were digitalized with NIS-Elements imaging software (Nikon). The number of neurons was measured in the bilateral substantia nigra.

[5] = test system: striatal dopamine (DA) concentration; test: Assay of striatal dopamine (DA) by HPLC; format: in vivo, mice; conditions: mean±SD
Description: as §1
Samples were processed blindly to the treatment conditions for HPLC analysis with electrochemical detector (ECD) using the method by Beyer (Bayer, et al., 2002). Bilaterally corpus striatum tissues were sonicated in 1 ml of pre-colded 0.4 N HClO4. The resulting homogenates were centrifuged twice for 12 min at 12000×g at 4° C. Mobile phase consisting of 0.035 mol/L anhydrous citric acid, 0.09 mol/L without Water-sodium acetate, 0.23 mmol/L sodium alkane sulfonate, 0.13 mmol/L EDTA, 10% methanol (pH4.7). Electrochemical conditions for the experiment were +0.50V. Separation was carried out at a flow rate of 1.0 ml/min. Samples (20 μl) were automatic injected and were quantified by comparison of the area under the curve (AUC) against reference standards. The concentrations of DA were expressed as ng/mg protein of the brain tissue. Protein content was determined in tissue supernatants by the method of Lowry using bovine serum albumin as a standard (Lowry et al., “Protein measurement with the Folin phenol reagent,” J Biol Chem. 193:265-275 (1951)).

[6] = test system: glutathione (GSH) levels in the SNpc; test: Total glutathione (GSH) level in SNpc using glutathione reductase; format: in vivo, mice; conditions: mean±SD
Description: as §1, §2

[7] = test system: malondialdehyde (MDA); test: Malondialdehyde (MDA) / TBARS lipid peroxidation in substantia nigra; format: in vivo, mice; conditions: n = 8
Description: as §1, §2

[8] = C20 mg alone (cysteamine 20 mg/kg/d, no MPTP)
[9] = C75 mg alone (cysteamine 75 mg/kg/d, no MPTP)

`NCCS` [cysteamine] showed an SOD ([1]; C20 mg + MPTP (pretreatment)) of 62.11 ± 4.74 U/mg, an SOD [1, 8] of 58.88 ± 17.66 U/mg and an SOD ([1]; C75 mg + MPTP (pretreatment)) of 58.53 ± 5.82 U/mg. For the same compound, the SOD [1, 9] was 59.13 ± 10.66 U/mg, the SOD ([1]; MPTP + C20 mg (simultaneous)) was 66.77 ± 4.64 U/mg and the SOD ([1]; MPTP + C75 mg (simultaneous)) was 59.58 ± 2.24 U/mg. For the same compound, the “BDNF concentration in substantia nigra” value ([2]; high dose cysteamine (75 mg/kg/d) + MPTP) was 55.43±12.15 pg/mg protein, the “BDNF concentration in substantia nigra” value ([2]; low dose cysteamine (20 mg/kg/d) + MPTP) was 74.22±7.79 pg/mg protein and the “BDNF concentration in substantia nigra” value ([2]; low dose cysteamine (20 mg/kg/d) alone, no MPTP) was 103.36±30.48 pg/mg protein. The “reversal of MPTP-induced decrease of BDNF” value ([2]; simultaneous administration of cysteamine (20 or 75 mg/kg/d) with MPTP, both P>0.05) was “did not reverse the decrease of BDNF by MPTP”, the ROS ([3]; C20 mg + MPTP (pretreatment)) was 17411 ± 589 MFI and the ROS [3, 8] was 17460 ± 779 MFI. For the same compound, the ROS ([3]; C75 mg + MPTP (pretreatment)) was 17411 ± 362 MFI, the ROS [3, 9] was 17980 ± 419 MFI and the ROS ([3]; MPTP + C20 mg (simultaneous)) was 19539 ± 431 MFI. For the same compound, the ROS ([3]; MPTP + C75 mg (simultaneous)) was 21976 ± 489 MFI, the “number of TH-IR nigral neurons” value ([4]; cysteamine 20 mg/kg/d 4 days prior to and along with MPTP (CS20 mg/kg/d+MPTP)) was 262.45±32.75 and the “number of TH-IR nigral neurons” value ([4]; cysteamine 75 mg/kg/d alone, no MPTP) was 271.05±44.93. The “number of TH-IR nigral neurons” value ([4]; cysteamine 75 mg/kg/d pretreatment + MPTP (CS75 mg/kg/d+MPTP)) was 172.10±42.69, the “number of TH-IR nigral neurons” value ([4]; simultaneous treatment MPTP+CS20 mg/kg/d) was 179.5±68.11 and the “number of TH-IR nigral neurons” value ([4]; simultaneous treatment MPTP+CS75 mg/kg/d) was 174.05±45.78. The “striatal DA concentration” value ([5]; cysteamine 20 mg/kg/d 4 days before and along with MPTP) was 47.96±10.57 ng/mg protein, the “striatal DA concentration” value ([5]; cysteamine 75 mg/kg/d pretreatment + MPTP) was 25.65±7.71 ng/mg protein and the “striatal DA concentration” value ([5]; cysteamine 75 mg/kg/day alone, no MPTP) was 32.22±4.71 ng/mg protein. For the same compound, the “striatal DA concentration” value ([5]; simultaneous treatment cysteamine 20 mg/kg/d during MPTP) was 36.27±16.42 ng/mg protein, the “striatal DA concentration” value ([5]; simultaneous treatment cysteamine 75 mg/kg/day during MPTP) was 25.08±8.10 ng/mg protein and the “level of GSH in the SNpc” value ([6]; pretreatment with low dose cysteamine (20 mg/kg/d) + MPTP) was 3.16±1.28 nmol TNB/mg protein. It also gave an MDA ([7]; C20 mg + MPTP (pretreatment)) of 8.25 ± 0.90 nmol/mg, an MDA [7, 8] of 8.82 ± 2.44 nmol/mg and an MDA ([7]; C75 mg + MPTP (pretreatment)) of 8.56 ± 1.08 nmol/mg. The MDA [7, 9] was 8.90 ± 2.14 nmol/mg, the MDA ([7]; MPTP + C20 mg (simultaneous)) was 9.86 ± 0.91 nmol/mg and the MDA ([7]; MPTP + C75 mg (simultaneous)) was 9.51 ± 0.57 nmol/mg.

With `CN1CC=C(c2ccccc2)CC1.Cl` [MPTP, 1-methyl-4-phenyl-1,2,3,6-tetrahydropyridine hydrochloride] the SOD ([1]; MPTP alone, substantia nigra, control 52.55 ± 13.35) was 57.73 ± 9.57 U/mg, the “BDNF concentration in substantia nigra” value ([2]; MPTP alone, control 78.34±16.09) was 39.55±7.82 pg/mg protein and the ROS ([3]; MPTP alone, substantia nigra, control 13010 ± 261) was 20207 ± 203 MFI. The “number of TH-IR nigral neurons” value ([4]; MPTP alone (20 mg/kg i.p., 5 days), control 295.65±47.47) was 166.65±58.15, the “striatal DA concentration” value ([5]; MPTP alone, control 57.62±12.70) was 26.38±6.47 ng/mg protein and the “level of GSH in the SNpc” value ([6]; MPTP alone, control 3.52±1.44) was 0.55±0.36 nmol TNB/mg protein. The MDA ([7]; MPTP alone, substantia nigra, control 7.89 ± 0.65) was 10.84 ± 2.65 nmol/mg.
